# Patent US4731363A, “Thromboxane synthase inhibitors as insulin lowering agents and antiobesity agents” (priority 1986, dated 1988)
# Key:
# [1] = tested on: isolated perfused rat pancreas; assay: Insulin secretion by isolated perfused rat pancreas; set-up: key: insulin AUC ratio: 1st glucose pulse / 2nd pulse with compound; details: 100 μM; 16.7 mM glucose; control 1.0 ± 0.04 (n = 5)
# Method: Determination of Insulin-Secretory Activity in the Isolated Perfused Rat Pancreas
# Pancreata were obtained from young adult female Charles River rats weighing from 200-300 g. The animals were anaesthesized with sodium pentobarbitol (45 mg/kg), injected intraperitoneally, and the pancreas with its intact vasculature was removed and connected to an extracorporeal perfusion apparatus.
# The basic perfusion solution contained: 133 mM NaCl, 4.4 mM KCl, 2.5 mM MgSO4, 2.4 mM Ca gluconate, 1.5 mM KH2 PO4, 29.4 mM NaHCO3, 4% dextran and 0.2% bovine serum albumin and glucose as discussed below. The perfusion flow rate was kept constant at 4 ml/min. After a 15-20 min equilibration period, the experimental protocol was begun. The pancreatic effluent was collected in either one or four-minute fractions.
# The perfusion was run in the following sequence:
# 30 min 16.7 mM glucose-internal control
# 30 min 16.7 mM glucose and test compound
# 5 min 20 mM arginine-to check pancreas viability
# Test compounds were dissolved in 90% ethanol to a concentration of 25 mM and then diluted in the perfusion buffer to the desired concentration. The perfusion effluent was collected in one or four min fractions-the samples were checked immediately, aliquoted for submission to radioimmunoassay and stored at -20° C. until the time of assay. The radioimmunoassay of insulin was carried out by a back-titration method using a pure rat insulin standard.
# To assess the inhibitory activity of the test compounds, an inhibition index was calculated. The inhibition index is derived by comparing the insulin secretion response from treated versus nontreated pancreas preparations. For each preparation, a ratio of insulin secretion was calculated from the area under the insulin secretion curve of the first pulse of 16.7 mM glucose divided by the area under the curve of the second pulse of 16.7 mM glucose containing compound.
# male Zucker rats = assay: Carcass weight and carcass lipid and protein levels in male Zucker rats; format: in vivo, rat; details: 29 days; for Carcass Protein % of carcass weight / Carcass Protein total / Carcass Lipids % of carcass weight / Carcass Lipids total / Carcass Weight: mean ± S.E.
# Method: In one study, carcass composition was determined. After treatment, rats were sacrificed by decapitation, and livers and blood were removed. Carcasses were weighed, saponified in alcoholic potassium hydroxide, acidified and extracted with petroleum ether. The petroleum ether supernatants were transferred to preweighed glass vials, evaporated immediately to dryness under nitrogen and reweighed. Total carcass data are expressed in grams and percentages of carcass weight. An aliquot of saponified carcass extract was neutralized, and total carcass nitrogen was determined using Kjeldahl procedure. Carcass protein data are expressed in grams and percentages of carcass weight.
# ^a Four month old male Zucker rats (four per group) were fed G70:1%
# corn oil diet ad libitum for 24 days prior to treatment.
# 1[4(1H--imidazol1-yl)phenyl]ethanone was then mixed into the G70:1% corn
# oil diet and rats were fed ad libitum for 29 days. On day 29 rats were
# killed by decapitation and the carcasses (minus liver and blood) were
# analyzed for total lipid and protein. Each value is the mean ± S.E.
# ^b Amount of 1[4(1H--imidazol1-yl)phenyl]ethanone ingested per day pe
# ^c Values in parentheses indicate percent of control.
# TXA2 Synthase = assay: TXA2 synthase IC50 as listed in Table I (enzyme source not stated); format: biochemical
# Method: Determination of Inhibition of Thromboxane Synthase Activity Isolation of Human Platelet Microsomes
# (§1) Assay for Thromboxane Synthase
# (§2) To a 12×75 mm tube containing [1-^14 C] PGH2 (2 μg, 0.01 μCi or 0.05 μCi) and inhibitor (1 mM final assay concentration, in 10 μl of ethanol) in 225 μl of phosphate buffer (0.1M, pH 7.5), was added to an aliquot of guinea pig lung microsomes (25 μl, containing 400 μg protein) or an aliquot of human platelet microsomes (25 μl, containing .congruent.[…] protein). The solution was incubated in a 22° water bath for 2 min.; ether (1 ml) and citric acid (25 μMoles) were added, and the tube plunged into an acetone-dry ice bath. The ether extract was transferred to a 1.0 ml Reacti-vial, and the volume reduced under nitrogen to .congruent.50 μl.
# (§3) The extract was applied to an I.T.L.C., type SG, glass fiber sheet (Gelman Instrument Co., Ann Arbor, Mich.) and developed in isooctane; methyl ethyl ketone: acetic acid (100:19:1 or 100:9:1) (19). The sheets were air dried and scanned using a Berthold LB 2760 Radiochromatographic Scanner. In certain cases, based on the radiochromatographic profile obtained, the sheets were cut, the appropriate regions placed in scintillation vials, 10 ml of LSC cocktail (Yorktown Research, S. Hackensack, NJ) added, and the relative cpm determined.
# [2] = target: T1, thromboxane synthase (Guinea Pig Lung Microsomes) (Cavia porcellus, UniProt H0UT36); assay: biochemical; details: enzyme source G = Guinea Pig Lung Microsomes; read-out: IC50
# T1 construct: The lungs were removed, freed of trachea and the majority of blood removed by rinsing the lungs with buffer; from tissue; host or cells: lungs of male guinea pigs (microsomes, 110,000 g pellet)
# T1 sequence (H0UT36 entry or part of it): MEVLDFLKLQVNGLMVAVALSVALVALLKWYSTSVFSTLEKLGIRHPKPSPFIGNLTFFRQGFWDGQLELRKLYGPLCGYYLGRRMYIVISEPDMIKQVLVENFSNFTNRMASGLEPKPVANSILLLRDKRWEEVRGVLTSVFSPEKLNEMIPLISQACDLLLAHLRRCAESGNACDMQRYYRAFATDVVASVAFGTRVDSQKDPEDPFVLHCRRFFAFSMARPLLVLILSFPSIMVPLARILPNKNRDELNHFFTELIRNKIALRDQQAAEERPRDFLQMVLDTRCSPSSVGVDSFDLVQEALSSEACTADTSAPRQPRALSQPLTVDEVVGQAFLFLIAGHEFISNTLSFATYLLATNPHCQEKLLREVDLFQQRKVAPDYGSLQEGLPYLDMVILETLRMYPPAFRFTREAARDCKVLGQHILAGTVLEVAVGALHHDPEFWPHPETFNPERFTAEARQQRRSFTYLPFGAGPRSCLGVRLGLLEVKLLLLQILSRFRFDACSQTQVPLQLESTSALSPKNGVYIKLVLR
# Method: In said assay procedure, microsomes from guinea pig lung or human platelets are added to an endoperoxide intermediate in prostaglandin biosynthesis and the inhibitor in phosphate buffer solution followed by incubation, extraction and determination of the extent of thromboxane synthase inhibition by TLC with radiochromatographic profile analysis. […]
# Isolation of Guinea Pig Lung Microsomes
# Four male guinea pigs (.congruent.500 g each) were sacrificed by spinal dislocation. The lungs were removed, freed of trachea and the majority of blood removed by rinsing the lungs with buffer (0.1M phosphate pH 7.5) via the pulmonary artery. The lung tissue (18.3 g total wet wt.), was then minced, suspended in three volumes of buffer and homogenized using, initially, a Brinkmann polytron homogenizer and, finally, a glass-teflon tissue grinder. The homogenate was centrifuged at 12,000 g for 1 hr. and the resultant supernatant recentrifuged at 110,000 g for 1 hr. The 110,000 g pellet was taken up in 10 ml of buffer, divided into 5×2 ml aliquots and stored at -70° until use.
# Low specific activity PGH2 (3.3 μCi/μmole) was obtained from Dr. W. E. M. Lands of the University of Michigan. PGH2 of higher specific activity (16.0 μCi/μmole) was purchased from Ran Biochemicals, Tel-Aviv, Israel.
# The inhibitors tested were prepared as solutions (1-10 mg/ml) in 95% ethanol.
# as §1, §2, §3
# [3] = Lean, 98 mg per day per kg in diet
# [4] = Lean, 98 mg per day per kg in diet, P ≤ 0.05
# [5] = Obese, 87 mg per day per kg in diet
smiles,measurement,setting,value
"CC(=O)c1ccc(-n2ccnc2)cc1 [1-[4-(1H--imidazol-1-yl)phenyl]ethanone, 1-[4-(1H-imidazol-1-yl)phenyl]ethanone]",Insulin Secretion Inhibition Index,[1],2
same,"Carcass Lipids % of carcass weight, percent of control",male Zucker rats; [3],60% of control
same,"Carcass Lipids total, percent of control",male Zucker rats; [3],50% of control
same,"Carcass Protein % of carcass weight, percent of control",male Zucker rats; [3],111% of control
same,"Carcass Protein total, percent of control",male Zucker rats; [3],87% of control
same,"Carcass Weight, percent of control",male Zucker rats; [3],84% of control
same,Carcass Protein % of carcass weight,male Zucker rats; [3],21 ± 2 % of carcass weight
same,Carcass Protein total,male Zucker rats; [3],75 ± 5 g
same,Carcass Lipids % of carcass weight,male Zucker rats; [4],8 ± 1 % of carcass weight
same,Carcass Lipids total,male Zucker rats; [4],29 ± 5 g
same,Carcass Weight,male Zucker rats; [4],361 ± 27 g
same,"Carcass Lipids % of carcass weight, percent of control",male Zucker rats; [5],104% of control
same,"Carcass Lipids total, percent of control",male Zucker rats; [5],86% of control
same,"Carcass Protein % of carcass weight, percent of control",male Zucker rats; [5],131% of control
same,"Carcass Protein total, percent of control",male Zucker rats; [5],109% of control
same,"Carcass Weight, percent of control",male Zucker rats; [5],83% of control
same,Carcass Lipids % of carcass weight,male Zucker rats; [5],49 ± 1 % of carcass weight
same,Carcass Lipids total,male Zucker rats; [5],225 ± 6 g
same,Carcass Protein % of carcass weight,male Zucker rats; [5],18 ± 2 % of carcass weight
same,Carcass Protein total,male Zucker rats; [5],81 ± 4 g
same,Carcass Weight,"male Zucker rats; Obese, 87 mg per day per kg in diet, P ≤ 0.05",460 ± 28 g
same,IC50,TXA2 Synthase,10 µM
same,IC50,[2],1 to 10 µM
